Assay results from ChEMBL document CHEMBL1201862, “PubChem BioAssay data set” (2004).
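Exposure lasted 48 hours, with cells grown in 96-well plates and compounds tested at five concentrations. GI50: concentration for 50% inhibition of growth.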 Calls of active or inactive are those of the source. No stated cut-off is given here; in the data, active = GI50 up to about 1.1 µM and inactive = higher.

What was measured:
Experiment in all cases: NCI tumour cell line growth inhibition, 48 h
[1] = system: HCT-15
[2] = system: SK-MEL-28
[3] = system: CCRF-CEM
[4] = system: KM-20L2
[5] = system: TK-10
[6] = system: IGROV-1
[7] = system: 786-0
[8] = system: UO-31
[9] = system: NCI-H522
[10] = system: SNB-78
[11] = system: MOLT-4
[12] = system: XF498
[13] = system: SF-539
[14] = system: DLD-1
[15] = system: DMS-114
[16] = system: M14
[17] = system: ACHN
[18] = system: OVCAR-3
[19] = system: HL-60
[20] = system: SK-OV-3
[21] = system: NCI-H460
[22] = system: RPMI-8226
[23] = system: HOP-18
[24] = system: DMS-273
[25] = system: EKVX
[26] = system: HCT-116
[27] = system: K562
[28] = system: OVCAR-8
[29] = system: HCC 2998
[30] = system: COLO 205
[31] = system: OVCAR-4
[32] = system: RXF 393
[33] = system: SW-620
[34] = system: SN12C
[35] = system: SR
[36] = system: LXFL 529
[37] = system: SK-MEL-2
[38] = system: NCI-H226
[39] = system: SK-MEL-5
[40] = system: A549
[41] = system: KM12
[42] = system: SNB-19
[43] = system: LOX IMVI
[44] = system: U-251
[45] = system: CAKI-1
[46] = system: HT-29
[47] = system: UACC-62
[48] = system: HOP-62
[49] = system: NCI-H23
[50] = system: M19-MEL
[51] = system: SF-295
[52] = system: SF-268
[53] = system: UACC-257
[54] = system: SNB-75
[55] = system: Malme-3M
[56] = system: A498
[57] = system: OVCAR-5
[58] = system: HOP-92

## CCOC(=O)/C(C#N)=C\C=C1/C=CN=C2NCCN21
[1]
  GI50: > 100 µM
[2]
  GI50: > 100 µM (inactive)
[3]
  GI50: > 100 µM (inactive)
[4]
  GI50: > 100 µM (inactive)
[5]
  GI50: > 100 µM (inactive)
[6]
  GI50: > 100 µM (inactive)
[7]
  GI50: > 100 µM (inactive)
[8]
  GI50: > 100 µM (inactive)
[9]
  GI50: > 100 µM (inactive)
[10]
  GI50: > 100 µM (inactive)
[11]
  GI50: > 100 µM (inactive)
[12]
  GI50: > 100 µM (inactive)
[13]
  GI50: > 100 µM (inactive)
[14]
  GI50: > 100 µM (inactive)
[15]
  GI50: > 100 µM (inactive)
[16]
  GI50: > 100 µM (inactive)
[17]
  GI50: 80.9 µM (inactive)
[18]
  GI50: > 100 µM (inactive)
[19]
  GI50: > 100 µM (inactive)
[20]
  GI50: > 100 µM (inactive)
[21]
  GI50: > 100 µM (inactive)
[22]
  GI50: > 100 µM (inactive)
[23]
  GI50: > 100 µM (inactive)
[24]
  GI50: > 100 µM (inactive)
[25]
  GI50: > 100 µM (inactive)
[26]
  GI50: > 100 µM (inactive)
[27]
  GI50: > 100 µM (inactive)
[28]
  GI50: > 100 µM (inactive)
[29]
  GI50: > 100 µM (inactive)
[30]
  GI50: > 100 µM (inactive)
[31]
  GI50: > 100 µM (inactive)
[32]
  GI50: 99.5 µM (inactive)
[33]
  GI50: > 100 µM (inactive)
[34]
  GI50: > 100 µM (inactive)
[35]
  GI50: > 100 µM (inactive)
[36]
  GI50: > 100 µM (inactive)
[37]
  GI50: > 100 µM (inactive)
[38]
  GI50: > 100 µM (inactive)
[39]
  GI50: > 100 µM (inactive)
[40]
  GI50: > 100 µM (inactive)
[41]
  GI50: > 100 µM (inactive)
[42]
  GI50: > 100 µM (inactive)
[43]
  GI50: > 100 µM (inactive)
[44]
  GI50: > 100 µM (inactive)
[45]
  GI50: > 100 µM (inactive)
[46]
  GI50: > 100 µM (inactive)
[47]
  GI50: > 100 µM (inactive)
[48]
  GI50: > 100 µM (inactive)
[49]
  GI50: > 100 µM (inactive)
[50]
  GI50: > 100 µM (inactive)
[51]
  GI50: > 100 µM (inactive)
[52]
  GI50: > 100 µM (inactive)
[53]
  GI50: > 100 µM (inactive)
[54]
  GI50: 14.4 µM (inactive)
[55]
  GI50: > 100 µM (inactive)

## O=C(OCCO)C1CC2CC1C1(C2)OCCO1 (stereo not given)
[2]
  GI50: > 100 µM (inactive)
[3]
  GI50: > 100 µM (inactive)
[4]
  GI50: > 100 µM (inactive)
[56]
  GI50: > 100 µM (inactive)
[5]
  GI50: > 100 µM (inactive)
[6]
  GI50: > 100 µM (inactive)
[7]
  GI50: > 100 µM (inactive)
[8]
  GI50: > 100 µM (inactive)
[9]
  GI50: > 100 µM (inactive)
[10]
  GI50: > 100 µM (inactive)
[57]
  GI50: > 100 µM (inactive)
[11]
  GI50: > 100 µM (inactive)
[12]
  GI50: > 100 µM (inactive)
[13]
  GI50: > 100 µM (inactive)
[14]
  GI50: > 100 µM (inactive)
[15]
  GI50: > 100 µM (inactive)
[16]
  GI50: > 100 µM (inactive)
[17]
  GI50: > 100 µM (inactive)
[18]
  GI50: > 100 µM (inactive)
[19]
  GI50: > 100 µM (inactive)
[20]
  GI50: > 100 µM (inactive)
[21]
  GI50: > 100 µM (inactive)
[22]
  GI50: > 100 µM (inactive)
[23]
  GI50: > 100 µM (inactive)
[58]
  GI50: > 100 µM (inactive)
[24]
  GI50: > 100 µM (inactive)
[25]
  GI50: > 100 µM (inactive)
[26]
  GI50: > 100 µM (inactive)
[27]
  GI50: > 100 µM (inactive)
[28]
  GI50: > 100 µM (inactive)
[30]
  GI50: > 100 µM (inactive)
[31]
  GI50: > 100 µM (inactive)
[32]
  GI50: > 100 µM (inactive)
[33]
  GI50: > 100 µM (inactive)
[34]
  GI50: > 100 µM (inactive)
[36]
  GI50: > 100 µM (inactive)
[37]
  GI50: > 100 µM (inactive)
[38]
  GI50: > 100 µM (inactive)
[39]
  GI50: > 100 µM (inactive)
[40]
  GI50: > 100 µM (inactive)
[41]
  GI50: > 100 µM (inactive)
[42]
  GI50: > 100 µM (inactive)
[43]
  GI50: > 100 µM (inactive)
[44]
  GI50: > 100 µM (inactive)
[45]
  GI50: > 100 µM (inactive)
[46]
  GI50: > 100 µM (inactive)
[47]
  GI50: > 100 µM (inactive)
[48]
  GI50: > 100 µM (inactive)
[49]
  GI50: > 100 µM (inactive)
[50]
  GI50: > 100 µM (inactive)
[51]
  GI50: > 100 µM (inactive)
[52]
  GI50: > 100 µM (inactive)
[53]
  GI50: > 100 µM (inactive)
[54]
  GI50: > 100 µM (inactive)
[55]
  GI50: > 100 µM (inactive)

## Cc1cc2c(cc1C)NC(=O)C(NC(=O)/C=C/c1ccccc1)C=N2 (stereo not given)
[1]
  GI50: 17.7 µM
[2]
  GI50: 72.3 µM (inactive)
[3]
  GI50: 3.56 µM (inactive)
[4]
  GI50: 45.3 µM (inactive)
[56]
  GI50: 37.2 µM (inactive)
[5]
  GI50: 50.6 µM (inactive)
[6]
  GI50: 34.8 µM (inactive)
[7]
  GI50: 30.3 µM (inactive)
[8]
  GI50: 29.6 µM (inactive)
[9]
  GI50: 16.3 µM (inactive)
[10]
  GI50: 66.7 µM (inactive)
[57]
  GI50: > 100 µM (inactive)
[11]
  GI50: 20.7 µM (inactive)
[12]
  GI50: 28 µM (inactive)
[13]
  GI50: 24.8 µM (inactive)
[14]
  GI50: 28.2 µM (inactive)
[15]
  GI50: 12.3 µM (inactive)
[16]
  GI50: 34 µM (inactive)
[17]
  GI50: 41.9 µM (inactive)
[18]
  GI50: 20.1 µM (inactive)
[19]
  GI50: 21.9 µM (inactive)
[20]
  GI50: 74.8 µM (inactive)
[21]
  GI50: 30.8 µM (inactive)
[22]
  GI50: 25.5 µM (inactive)
[23]
  GI50: 37.5 µM (inactive)
[24]
  GI50: 29 µM (inactive)
[25]
  GI50: > 100 µM (inactive)
[26]
  GI50: 20.8 µM (inactive)
[27]
  GI50: 22.5 µM (inactive)
[28]
  GI50: 38.2 µM (inactive)
[29]
  GI50: 48.6 µM (inactive)
[30]
  GI50: 18.1 µM (inactive)
[31]
  GI50: 38.9 µM (inactive)
[32]
  GI50: 16.1 µM (inactive)
[33]
  GI50: 4.73 µM (inactive)
[34]
  GI50: 38.8 µM (inactive)
[35]
  GI50: 20.8 µM (inactive)
[36]
  GI50: 27.9 µM (inactive)
[37]
  GI50: 24.5 µM (inactive)
[38]
  GI50: 95.3 µM (inactive)
[39]
  GI50: 29.9 µM (inactive)
[40]
  GI50: 30.7 µM (inactive)
[41]
  GI50: 19.5 µM (inactive)
[42]
  GI50: 64.3 µM (inactive)
[43]
  GI50: 22.7 µM (inactive)
[44]
  GI50: 23.9 µM (inactive)
[45]
  GI50: 31.3 µM (inactive)
[47]
  GI50: 34.8 µM (inactive)
[48]
  GI50: > 100 µM (inactive)
[50]
  GI50: 33.3 µM (inactive)
[51]
  GI50: 50.8 µM (inactive)
[52]
  GI50: 29.9 µM (inactive)
[53]
  GI50: 24.3 µM (inactive)
[54]
  GI50: 44.1 µM (inactive)
[55]
  GI50: 35.9 µM (inactive)
